In publication PMC9102502, “The Influence of Selected Antipsychotic Drugs on Biochemical Aspects of Alzheimer’s Disease” (International Journal of Molecular Sciences, 2022):
Read-outs that look alike come from different tables or passages of the source.

Legend:
[1] = biological target: T1, human erythrocyte acetylcholinesterase (Homo sapiens, UniProt P22303); experiment: AChE inhibition, modified Ellman's method; type: biochemical
T1 construct: solution of hemolyzed erythrocytes diluted 400-fold; from tissue; host or cells: hemolyzed erythrocytes from blood of healthy human donors
T1 sequence (P22303 32-617 isoform P22303-2 limits assumed): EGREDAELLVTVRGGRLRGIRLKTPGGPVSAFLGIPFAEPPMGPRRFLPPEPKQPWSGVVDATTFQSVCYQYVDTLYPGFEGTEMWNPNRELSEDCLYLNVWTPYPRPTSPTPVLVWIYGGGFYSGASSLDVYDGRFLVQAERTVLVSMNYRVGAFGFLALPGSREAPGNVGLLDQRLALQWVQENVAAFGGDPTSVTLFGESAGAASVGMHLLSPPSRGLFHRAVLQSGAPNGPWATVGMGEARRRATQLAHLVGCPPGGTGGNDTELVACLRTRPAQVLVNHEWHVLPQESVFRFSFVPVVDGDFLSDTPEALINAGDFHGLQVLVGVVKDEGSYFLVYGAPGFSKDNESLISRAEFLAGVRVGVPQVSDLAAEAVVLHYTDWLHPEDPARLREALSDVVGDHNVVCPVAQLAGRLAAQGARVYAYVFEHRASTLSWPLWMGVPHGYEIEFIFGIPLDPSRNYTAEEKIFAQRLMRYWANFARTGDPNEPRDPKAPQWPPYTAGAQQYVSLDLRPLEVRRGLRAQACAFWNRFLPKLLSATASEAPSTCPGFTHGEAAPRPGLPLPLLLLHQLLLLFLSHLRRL
Procedure: (§1) The activity of both cholinesterases (AChE and BuChE) were assessed spectrophotometrically according to the Ellman’s method with some modifications by Worek et al.. This test development included experimental determination of the optimal testing conditions. For all measurements, 37 °C was used as the best temperature for enzymatic determinations in material of human origin.
(§2) The solution of plasma 200-fold diluted with 0.9% NaCl and solution of hemolyzed erythrocytes diluted 400-fold with 0.9% were incubated (37 °C, 15 min) with 5 μL DTNB (0.01 mol/L) and 10 μL tested compound at a wider range of concentration than the therapeutic range in order to assess the overall effect of the compound on human esterases (AChE and BuChE). The controls without antipsychotics, containing only DTNB and diluted plasma or diluted solution of hemolyzed erythrocytes, were prepared. […] The final volume of a sample was 500 μL. […] The maximal velocity of the reaction was determined on the basis of changes in absorbance over time.
(§3) AChE SI (selectivity index) was calculated by using the following formula: SI = IC50 of BuChE/IC50 of AChE. However, BuChE SI was defined as IC50 of AChE/IC50 of BuChE. Maximal velocity (Vmax) and the Michaelis constant (Km) were calculated with the use of linear regression—according to the Hanes–Woolf plot.

[2] = test system: HUVEC cells; experiment: WST-1 viability under AAPH-induced oxidative stress, HUVEC; type: cell-based, human; conditions: AAPH 17.5 mmol/L, relative to pure medium control
Procedure: (§4) WST-1 assay (Takara, Takara Bio Europe, Saint-Germain-en-Laye, France) was used to assess the effects of antipsychotics on the growth of HUVEC and astrocytes. The experiments were conducted as described previously. HUVEC were seeded at a density of 7500 cells, and astrocytes at 5000 cells per well on 96-well microplates and cultured for 24 h followed by treatment with compounds at ½ × TPCmax and TPCmax or pure medium as a control (v = 100 μL) for another 24 h (37 °C, 5% CO2). Subsequently, the cells were washed with culture medium (100 μL) and WST-1 reagent diluted in medium (10 μL of reagent + 90 μL of medium) was added. The plates were incubated at 37 °C in 5% CO2 for another 90 min for HUVEC and 60 min for astrocytes. The absorbance was read at 450 nm using a microplate reader (iMARK, Bio-Rad, Hercules, CA, USA). The cells viability was expressed as a percentage of the control samples which constituted 100% viability.
(§5) Moreover, the WST-1 assay was used to evaluate potential protective effects of antipsychotics on the growth of HUVEC and astrocytes under conditions of AAPH-induced oxidative stress. The experimental conditions were the same as in viability studies. AA at the final concentration of 10 μg/mL was used as an antioxidant control. After reaching the confluence, the antipsychotics were added at concentrations equaling ½ × TPCmax and TPCmax. After 1 h incubation under standard conditions, 50 μL AAPH was added to the wells containing tested compounds or AA. The AAPH concentration was chosen on the basis of preliminary experiments—17.5 mmol/L in HUVEC experiments, and 15.0 mmol/L in the case of astrocytes.

[3] = biological target: AChE (Homo sapiens, UniProt P22303); experiment: Synergism of antipsychotics with donepezil/rivastigmine (binary mixtures), AChE; conditions: for CI (combination index), AChE: ComboSyn;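 for all read-outs here: antipsychotic concentration kept fixed across all measurements, selected from estimated therapeutic plasma levels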
Chain of AChE (P22303 32-617 isoform P22303-2 limits assumed): as above
Text: In turn, the concentrations of antipsychotics were constant in every measurement, and were chosen on the basis of estimated therapeutic plasma concentrations.
Automatic simulation of synergism and antagonism at all doses or effect levels is possible by computer software, based on algorithms. Calculation of the combination index (CI) and isobologram analyses enable to quantitatively determine drug interactions, where CI < 1, =1 and >1 indicate synergism, additive effect and antagonism, respectively. […] The software also allowed us to display the dose–effect curve, the median–effect plot and the dose-reduction index (DRI) plot [36].

[4] = biological target: BuChE (Homo sapiens, UniProt P06276); experiment: Synergism of antipsychotics with donepezil/rivastigmine (binary mixtures), BuChE; conditions: ComboSyn;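 note: combination index derived by median-effect analysis of combined drug effects on the cholinesterase, with values below 1 meaning synergism, exactly 1 additivity and above 1 antagonism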
Chain of BuChE (P06276 29-602): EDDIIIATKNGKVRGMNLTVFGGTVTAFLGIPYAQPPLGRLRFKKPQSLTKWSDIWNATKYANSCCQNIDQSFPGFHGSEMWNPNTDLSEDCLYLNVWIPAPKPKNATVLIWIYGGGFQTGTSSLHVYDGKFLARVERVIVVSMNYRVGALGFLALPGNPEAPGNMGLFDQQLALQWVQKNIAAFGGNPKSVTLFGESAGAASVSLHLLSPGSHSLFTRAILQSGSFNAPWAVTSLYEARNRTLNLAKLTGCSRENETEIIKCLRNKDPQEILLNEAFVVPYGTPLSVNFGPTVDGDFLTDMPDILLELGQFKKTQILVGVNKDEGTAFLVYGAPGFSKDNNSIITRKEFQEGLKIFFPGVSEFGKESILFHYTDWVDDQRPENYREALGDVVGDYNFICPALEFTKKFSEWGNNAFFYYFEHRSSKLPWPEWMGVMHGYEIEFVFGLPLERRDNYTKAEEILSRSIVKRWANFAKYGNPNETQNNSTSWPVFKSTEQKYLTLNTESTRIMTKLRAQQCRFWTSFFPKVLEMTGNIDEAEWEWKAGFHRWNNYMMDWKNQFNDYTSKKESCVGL

[5] = test system: astrocytes; experiment: WST-1 viability under AAPH-induced oxidative stress, astrocytes; type: cell-based, human
Procedure: as §4, §5

[6] = biological target: T2, recombinant human β-amyloid (1–42) (Homo sapiens, UniProt P05067); experiment: Beta-amyloid aggregation, Thioflavin T fluorescence; type: biochemical
T2 construct: recombinant human β-amyloid (1–42; ultrapure); purchased Sigma-Aldrich (St. Louis, MO, USA)
T2 sequence (P05067 672-713 limits assumed): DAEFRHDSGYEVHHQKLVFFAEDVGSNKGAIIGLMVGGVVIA
Procedure: Aβ42 peptide was dissolved in DMSO and left to hydrate for a few minutes. The solution was centrifuged at 10,000 rpm for 5 min at 4 °C to separate any precipitated material. The solution at a concentration of 220 μmol/L was stored in small aliquots at a temperature of −30 °C and before each experiment it was restored at 37 °C for 15 min. Test samples containing Aβ42 solution at the final concentration of 20 μmol/L was incubated with antipsychotics at concentrations equaling their TPC and 1/2 × TPC (v = 10 µL). The final volume of the test samples was 100 μL. The positive control constituted a sample of Aβ42 peptide, whereas the negative control contained tannic acid at the final concentrations of 0.1 µmol/L and 10 µmol/L. The fibrillation reaction was set up by addition of thioflavin ThT dye at a concentration of 5 µmol/L. The fluorescence intensity was measured at room temperature with Ex/Em = 440 nm/484 nm (Synergy H1; BioTek, Winooski, VT, USA). The measurements of fluorescence intensity expressed as relative fluorescence units (RFU) were taken at 10, 30, 60 and 90 min and then after 24 and 48 h. The fluorescence intensity measured for control equaled 100% of Aβ aggregation and it was used to estimate the inhibitory properties of the tested antipsychotics.

[7] = biological target: T3, human plasma butyrylcholinesterase (Homo sapiens, UniProt P06276); experiment: BuChE inhibition, modified Ellman's method; type: biochemical; conditions: 200 µg/L; control 0.349 ± 0.013 A/min
T3 construct: The solution of plasma 200-fold diluted with 0.9% NaCl; from tissue; host or cells: citrated plasma from blood of healthy human donors
T3 sequence (P06276 29-602): as the sequence (P06276 29-602) above
Procedure: as §1, §2, §3

[8] = TPC (bromperidol 25 μg/L, quetiapine 400 μg/L)
[9] = ½ × TPC (bromperidol 12.5 μg/L, quetiapine 200 μg/L)
[10] = donepezil 0.005 μmol/L + antipsychotic at TPCmax, CI < 1 synergism, > 1 antagonism
[11] = donepezil 0.01 μmol/L + antipsychotic at TPCmax
[12] = donepezil 0.02 μmol/L + antipsychotic at TPCmax
[13] = donepezil 0.05 μmol/L + antipsychotic at TPCmax
[14] = donepezil 0.1 μmol/L + antipsychotic at TPCmax
[15] = rivastigmine 5 μmol/L + antipsychotic at TPCmax
[16] = rivastigmine 10 μmol/L + antipsychotic at TPCmax
[17] = rivastigmine 15 μmol/L + antipsychotic at TPCmax
[18] = rivastigmine 25 μmol/L + antipsychotic at TPCmax
[19] = rivastigmine 40 μmol/L + antipsychotic at TPCmax
[20] = rivastigmine 75 μmol/L + antipsychotic at TPCmax
[21] = rivastigmine 100 μmol/L + antipsychotic at TPCmax
[22] = donepezil 2 μmol/L + antipsychotic at TPCmax
[23] = donepezil 5 μmol/L + antipsychotic at TPCmax
[24] = donepezil 10 μmol/L + antipsychotic at TPCmax
[25] = donepezil 20 μmol/L + antipsychotic at TPCmax
[26] = donepezil 100 μmol/L + antipsychotic at TPCmax
[27] = rivastigmine 0.05 μmol/L + antipsychotic at TPCmax
[28] = rivastigmine 0.1 μmol/L + antipsychotic at TPCmax
[29] = rivastigmine 0.25 μmol/L + antipsychotic at TPCmax
[30] = rivastigmine 0.5 μmol/L + antipsychotic at TPCmax
[31] = rivastigmine 0.75 μmol/L + antipsychotic at TPCmax
[32] = rivastigmine 1 μmol/L + antipsychotic at TPCmax
[33] = rivastigmine 2.5 μmol/L + antipsychotic at TPCmax

| SMILES | viability of HUVEC under AAPH [2, 8] [%] | viability of HUVEC under AAPH [2, 9] [%] | CI (combination index), AChE [3, 10] | CI (combination index), AChE [3, 11] | CI (combination index), AChE [3, 12] | CI (combination index), AChE [3, 13] | CI (combination index), AChE [3, 14] | CI (combination index), AChE [3, 15] | CI (combination index), AChE [3, 16] | CI (combination index), AChE [3, 17] | CI (combination index), AChE [3, 18] | CI (combination index), AChE [3, 19] | CI (combination index), AChE [3, 20] | CI (combination index), AChE [3, 21] | CI (combination index), BuChE [4, 22] | CI (combination index), BuChE [4, 23] | CI (combination index), BuChE [4, 24] | CI (combination index), BuChE [4, 25] | CI (combination index), BuChE [4, 26] | CI (combination index), BuChE [4, 27] | further results |
| --- | --- | --- | --- | --- | --- | --- | --- | --- | --- | --- | --- | --- | --- | --- | --- | --- | --- | --- | --- | --- | --- |
| OC1(c2ccc(Cl)c(C(F)(F)F)c2)CCN(CCCC(c2ccc(F)cc2)c2ccc(F)cc2)CC1 [Penfluridol, penfluridol] | 82.9 | 80.5 | 0.79 | 0.80 | 0.93 | 0.89 | 0.90 | > 2.50 | 0.75 | 0.73 | 0.92 | 0.97 | 1.06 | 1.06 | 1.21 | 0.98 | 1.04 | 1.03 | 1.21 | 0.64 | AChE reaction velocity [1]: 0.226 ± 0.012 A/min; Effect on IC50 AChE of rivastigmine ([3]; binary mixture vs pure rivastigmine ([…]), ↓ lower, ↑ higher IC50, - no change): does not affect; CI (combination index), BuChE ([4]; donepezil 50 μmol/L + antipsychotic at TPCmax): 1.14; CI (combination index), BuChE [4, 28]: 0.68; CI (combination index), BuChE [4, 29]: 0.79; CI (combination index), BuChE [4, 30]: 1.01; CI (combination index), BuChE [4, 31]: 1.08; CI (combination index), BuChE [4, 32]: 1.13; CI (combination index), BuChE [4, 33]: 1.28; CI (combination index), BuChE [4, 15]: 1.17; astrocyte viability compared with the control (pure AAPH) ([5]; benperidol 5 and 10 μg/L, penfluridol 12.5 μg/L, pimozide 15 μg/L, promazine 25 and 50 μg/L): statistically significant increase; effect on Aβ aggregation within 10–90 min ([6]; 25 µg/L, at any of these time points): does not inhibit |
| O=C(CCCN1CCC(O)(c2ccc(Br)cc2)CC1)c1ccc(F)cc1 [Bromperidol, bromperidol] | 82.5 | 66.8 | 0.07 | 0.78 | 0.81 | 0.81 | 0.80 | 0.32 | 0.38 | 0.46 | 0.50 | 0.53 | 0.55 | 0.60 | 0.43 | 0.52 | 0.57 | 0.70 | 0.89 | 0.18 | AChE reaction velocity ([1]; 200 µg/L, control 0.236 ± 0.032 A/min): 0.228 ± 0.029 A/min; CI (combination index), AChE ([3]; rivastigmine 50 μmol/L + antipsychotic at TPCmax): 0.49; BuChE reaction velocity [7]: 0.230 ± 0.023 A/min; CI (combination index), BuChE [4, 28]: 0.30; CI (combination index), BuChE [4, 29]: 0.57; CI (combination index), BuChE [4, 30]: 0.74; CI (combination index), BuChE [4, 31]: 0.86; CI (combination index), BuChE [4, 32]: 0.92; CI (combination index), BuChE [4, 33]: 0.96; CI (combination index), BuChE [4, 15]: 0.96; astrocyte viability under AAPH ([5]; ½ × TPC (benperidol 5 μg/L, bromperidol 12.5 μg/L), AAPH 15 mmol/L): 68.9%; percentage value of Aβ inhibition ([6]; 12.5 μg/L, 48 h, compared with the control (100% Aβ aggregation)): 51.2%; effect on Aβ aggregation after a longer incubation time ([6]; 24 and 48 h, both tested concentrations): substantially inhibit |
